Assay results as given in patent US20220280601A1, “METHOD FOR TREATMENT OF HEPATIC CANCER USING REIC/Dkk-3 GENE IN COMBINATION WITH ANTI-TUMOR AGENT” (Momotaro-Gene Inc., priority 2019, published 2022).

Experiments:
Huh7 cells = test: MTT cell viability assay, Huh7; assay type: cell-based; settings: 72 hours
Procedure: (§1) The hepatic cancer cell lines Hep3B and Huh7 (hereafter, referred to as “Hep3B cells” and “Huh7 cells,” respectively, according to need) were purchased from the Japanese Cancer Resources Bank (Tokyo, Japan). The cells were maintained in Dulbecco's Modified Eagle's Medium supplemented with 10% FBS, 1% non-essential amino acid, 1% penicillin/streptomycin, and amphotericin B (0.5 μg/ml). The cells were cultured in accordance with a conventional technique in a humidified 5% CO2 incubator at 37° C. When the cells reached subconfluency, they were pretreated in a medium containing 0.1% dialyzed FBS for 24 hours before experimentation and then subjected to experimentation. […]
(§2) The hepatic cancer cell lines Hep3B and Huh7 were cultured in the presence or absence of Ad-LacZ or Ad-REIC for 72 hours. Cell viability was evaluated via MTT assays. […] Mitochondrial activity reflecting cell viability was evaluated by measuring the absorbance at 570 nm using a microplate reader. […]
(§3) Hep3B cells and Huh7 cells were cultured in the presence or absence of Cisplatin (1 μg/ml) for 72 hours and in the presence or absence of Ad-Lac Z (MOI of 50) or Ad-REIC (MOI of 50). Cell viability was evaluated by the MTT assays described above. […]

Hep3B cells = test: MTT cell viability assay, Hep3B; assay type: cell-based; settings: 72 hours
Procedure: as §1, §2, §3

[1] = system: JNK signal transmission pathway (p-ASK1, p-IRE1α, p-JNK, p-c-Jun) in Huh7 cells; test: Immunoblot analysis of the JNK signal transmission pathway; assay type: cell-based; settings: Huh7, lysates 48 hours after transfection, regardless of the presence or absence of Ad-REIC (MOI of 10)
Procedure: The mechanism of Ad-REIC for apoptosis induction was examined. By performing immunoblotting, activation of signal transmission molecules in the JNK signal transmission pathway by Ad-REIC and Cisplatin was evaluated. Ad-LacZ and Ad-REIC at MOI of 10 each were transfected into the Hep3B cells and the Huh7 cells, and cell lysates were collected 48 hours thereafter. Protein expression of phospho-ASK1 (p-ASK1), phospho-IRE1α (p-IRE1α), phospho-JNK (p-JNK), and phospho-c-Jun (p-c-Jun) β-actin was analyzed via immunoblotting using specific antibodies. Immunoblotting of β-actin was performed to examine equal loading of proteins in the cells.

[2] = system: mouse hepatocellular cancer cell line Hep1-6 allograft; test: Tumor growth assay in allograft mouse model (Hep1-6), Ad-REIC with Cisplatin; assay type: in vivo, C57BL/6 mice; settings: Ad-REIC 1.0×10^9 pfu intratumorally Days 14, 16, Cisplatin 1 mg/kg intraperitoneally Days 14, 21, control PBS
Excerpt: C57BL/6 female mice (6- to 8-week-old) were purchased from Japan SLC Inc. and maintained with free access to feeds and water in the SPF environment in Okayama University animal experimentation facility. Mice were adapted to the breeding environment over a period of 1 week or longer before the experimentation was initiated. Mice were bred and treated under the strictly controlled conditions in accordance with the guidelines provided by the institutional animal control committee, Okayama University Medical School.
The mouse hepatocellular cancer cell line Hep1-6 ([…], suspended in 200 μl of PBS) were injected into the right flanks of the C57BL/6 mice (Day 0). When the tumor diameters reached 5 to 10 mm, administration of Ad-REIC and Cisplatin was initiated. Ad-REIC (1.0×10^9 pfu) was administered intratumorally on Days 14 and 16. Cisplatin (1 mg/kg) was administered intraperitoneally on Days 14 and 21. Tumor sizes were measured 2 times a week, and tumor volumes were determined.

advanced hepatic cancer = settings: clinical trials, advanced hepatic cancer (Non-Patent Document 1); cited from earlier work

N.N.[Cl][Pt][Cl] [Cisplatin]
cell viability of Huh7 cells, dependence on amount of Cisplatin (Huh7 cells): decreased depending on the amount of Cisplatin administered | cell viability of Hep3B cells, dependence on amount of Cisplatin (Hep3B cells): decreased depending on the amount of Cisplatin administered | expression of p-ASK1, p-IRE1α, p-JNK and p-c-Jun (immunoblotting) [1]: each such expression was activated | anti-tumor effects (tumor volume) [2]: the tumor volume was decreased, and anti-tumor effects were observed

CNC(=O)c1cc(Oc2ccc(NC(=O)Nc3ccc(Cl)c(C(F)(F)F)c3)cc2)ccn1 [Sorafenib]
medial survival period (advanced hepatic cancer): 15.6 months
